Measured values from patent publication US20230223113A1, “Methods and Systems for Rapid Antimicrobial Susceptibility Tests” (The Regents of the University of California, priority 2020, published 2023).
Structures can show the parent of a compound that is named as a salt.

Columns and labels:
[1] = tested on: Pseudomonas aeruginosa (strain PA14 wild type); assay: Dose-response growth curves (OD600 after 24 h) to identify the minimum inhibitory concentration; assay type: cell-based; conditions: for MIC: Pseudomonas aeruginosa, P. aeruginosa PA14, the stated concentration is 'just below' the MIC
Method: (§1) Optical density at 600 nm (OD600) to identify the minimum inhibitory concentration (MIC) of A) carbenicillin, B) rifampicin, and C) gentamicin for Pseudomonas aeruginosa, and D) gentamicin for Escherichia coli in accordance with an embodiment is illustrated in FIGS. 5A-5D. The P. aeruginosa strain, PA14 used in some embodiments has differing susceptibility to carbenicillin [+C] and rifampicin [+R]. Several embodiments refer to the antibiotic treatments that are performed with 50 μg/mL and 400 μg/mL of carbenicillin and rifampicin, respectively as the AST dataset. These concentrations are just below the respective minimum inhibitory concentrations (MICs) for these antibiotics in P. aeruginosa, as shown in FIGS. 5A and 5B. OD600 of a P. aeruginosa cell culture at indicated growth times after adjustment to OD at 0.5 at 0 h, A) without antibiotic treatment, B) with 50 μg/mL carbenicillin introduced at 0 h, and C) with 400 μg/mL rifampicin introduced at 0 h in accordance with an embodiment of the invention is illustrated in FIGS. 6A-6C.
(§2) Pseudomonas aeruginosa (strain PA14 wild type) and Escherichia coli (strain MC4100, K-12, F-araD139Δ(argF-lac)U169 rspL150 relA1 fIbB5301 fruA25 deoC1 ptsF25) cultures were obtained by first streaking from a frozen culture stock onto LB Lennox agar (IBI Scientific) plates and incubated at 37° C. for 24 h. Individual colonies from these plates were used to inoculate 100 mL of LB in triplicate, and subsequently grown for 18 h at 37° C. and shaking at 230 rpm. The 18 h cultures were centrifuged at 5000 rpm for 5 minutes, then resuspended in fresh LB to reach an optical density at 600 nm (OD600) of 0.50 as measured by a BioChrom Colourwave CO7500 Colorimeter.
Dose-Response Curves: Carbenicillin disodium salt, gentamicin sulfate, and rifampicin stock solutions were prepared to a final concentration of 10 mg/mL in water for the former two and 20% (v/v) DMSO/H2O for the latter. These stock solutions were added into 180 μL of E. coli or P. aeruginosa resuspension in a 96-well plate such that 9 separate 10-fold dilutions of each antibiotic starting at 1000 μg/mL were achieved. Vehicle controls using pure water for carbenicillin and gentamicin and 20% (v/v) DMSO/H2O for rifampicin were also created in the same 96-well plate. These plates were then incubated at 37° C. for 24 h with 230 rpm shaking, after which OD600 measurements were taken with a SpectraMax M2 Plate Reader.

[2] = tested on: E. coli lysate; assay: SERS spectra of cell lysate after antibiotic exposure, VAE latent space analysis; assay type: cell-based, Escherichia coli
Method: Many embodiments provide VAE performance on differentiating spectra from multiple bacterial species, a different antibiotic, time points, and dosages. SERS spectra from cellular lysate with varying dose and temporal response of P. aeruginosa and E. coli when exposed to gentamicin are analyzed similarly as the AST dataset in several embodiments. When analyzing the SERS spectra from E. coli and P. aeruginosa with the VAE method, differentiation of P. aeruginosa lysate data at concentrations at about 0.1 μg/mL, an order of magnitude below the MIC, can be observed in accordance with some embodiments. FIG. 9A illustrates VAE latent space analysis of SERS spectra of dose response of P. aeruginosa with analysis of 0, 0.1, 0.5, 1, and 10 μg/mL gentamicin dosed lysate respectively in accordance with an embodiment. In several embodiments, lysate from P. aeruginosa exposed to 10 μg/mL gentamicin (10×MIC) can be analyzed with VAE method and differentiated from control data in the VAE space at about 20 minute after initial exposure. The short temporal response time in accordance with some embodiments is much earlier than reported 2 hour response time for SERS AST. FIG. 9B illustrates VAE latent spaces of temporal response of P. aeruginosa with lysate processed after 0, 5, 10, 20, and 40 minutes of 10 μg/mL gentamicin dosage respectively in accordance with an embodiment. […]

[3] = tested on: P. aeruginosa lysate; assay: as above; assay type: cell-based, Pseudomonas aeruginosa
Method: The VAE space from analysis of the AST dataset in accordance with many embodiments provide clustering of the different treatment classes. VAE space of AST spectra from untreated [−−] P. aeruginosa lysate (0.5 h/2 h), 50 μg/mL carbenicillin treated [+C] P. aeruginosa lysate (0.5 h/2 h), 400 μg/mL rifampicin treated [+R] P. aeruginosa lysate (0.5 h/2 h) in accordance with an embodiment of the invention is illustrated in FIG. 7A. […] Some embodiments provide that larger relative VAE 1 values can be observed for 30 minute treatment times for all treatment classes as compared to 2 hour exposure. This is consistent with OD600 measurements indicating cell recovery after 2 hour in FIGS. 6A-6C.
Many embodiments provide VAE performance on differentiating spectra from multiple bacterial species, a different antibiotic, time points, and dosages. SERS spectra from cellular lysate with varying dose and temporal response of P. aeruginosa and E. coli when exposed to gentamicin are analyzed similarly as the AST dataset in several embodiments. When analyzing the SERS spectra from E. coli and P. aeruginosa with the VAE method, differentiation of P. aeruginosa lysate data at concentrations at about 0.1 μg/mL, an order of magnitude below the MIC, can be observed in accordance with some embodiments. […]

[4] = tested on: P. aeruginosa cell culture; assay: OD600 of cell culture over time of antibiotic exposure after adjustment to OD 0.5; assay type: cell-based, Pseudomonas aeruginosa; conditions: 50 μg/mL carbenicillin, about 2 hour exposure
Method: as §1, with “OD600 of a P. aeruginosa cell culture at indicated growth times after adjustment to OD at 0.5 at 0 h, A) without antibiotic treatment, B) with 50 μg/mL carbenicillin introduced at 0 h, and C) with 400 μg/mL rifampicin introduced at 0 h in accordance with an embodiment of the invention is illustrated in FIGS. 6A-6C.” left out
as §2, with “Individual colonies from these plates were used to inoculate 100 mL of LB in triplicate, and subsequently grown for 18 h at 37° C. and shaking at 230 rpm.” left out, “Colorimeter. […]” for “Colorimeter.”

Row | Compound | dose as a multiple of the MIC ([1]; 10 μg/mL gentamicin, P. aeruginosa) [×MIC] | resistance of P. aeruginosa (from growth curves, FIGS. 5A-5D) ([1]; P. aeruginosa) | time after initial exposure at which discernable clustering appears in VAE space ([2]; 10 μg/mL gentamicin) | antibiotic concentration at which lysate data are differentiated from control treatment in VAE space ([2]; gentamicin dose response 0, 0.1, 0.5, 1, 10 μg/mL) [µg/mL] | time after initial exposure at which lysate is differentiated from control in VAE space ([3]; 10 μg/mL gentamicin) | antibiotic concentration at which lysate data are differentiated from control in VAE space ([3]; gentamicin dose response 0, 0.1, 0.5, 1, 10 μg/mL, an order of magnitude below the MIC) | growth inhibition over the time of exposure (OD600) [4] | MIC [1] [µg/mL]
1 | gentamicin sulfate | 10 | evident resistance | about 10 minute | ≤ 0.1 | about 20 minute | about 0.1 μg/mL |  | 
2 | CC1(C)S[C@@H]2[C@H](NC(=O)C(C(=O)O)c3ccccc3)C(=O)N2[C@H]1C(=O)O (stereo partly drawn) [carbenicillin, Carbenicillin disodium salt] |  |  |  |  |  |  | does not exhibit any significant growth inhibition | > 50
3 | CO[C@H]1/C=C/O[C@@]2(C)Oc3c(C)c(O)c4c(O)c(c(/C=N/N5CCN(C)CC5)c(O)c4c3C2=O)NC(=O)/C(C)=C\C=C\[C@H](C)[C@H](O)[C@@H](C)[C@@H](O)[C@@H](C)[C@H](OC(C)=O)[C@@H]1C [rifampicin] |  |  |  |  |  |  |  | > 400
